Measurements published in patent US20240288449A1, “METHODS FOR DIAGNOSING A CANCER- OR ANTIBIOTICS-INDUCED DYSBIOSIS AND THEIR USE FOR IMPROVING CANCER TREATMENT BY IMMUNOTHERAPY” (INSTITUT GUSTAVE ROUSSY, priority 2021, published 2024).

Key:
[1] = system: MAdCAM-1 (Madcam1 gene expression); assay: Madcam1 gene and protein expression in gut tissues of mice (RT-PCR, IHC, flow cytometry, ELISA); type: in vivo, C57BL/6J mice; details: for Madcam1 gene expression in ileal LP / Madcam1 gene expression in mesenteric lymph nodes (mLN): single antibiotic regimen, 7 days conditioning
Description: (§1) Antibiotic treatments. If not indicated otherwise, mice were treated with a broad spectrum antibiotic solution (ATB) containing ampicillin (1 mg/ml), streptomycin (5 mg/ml), and colistin (1 mg/ml) (Sigma-Aldrich) added to the sterile drinking water of mice. In experiments where single antibiotics were used the concentrations were ampicillin (1 mg/ml), streptomycin (5 mg/ml), colistin (1 mg/ml), erythromycin (1 mg/ml) or ciprofloxacin (0.1 mg/ml) respectively. Solutions and bottles were changed 2 times weekly. Antibiotic activity, in the experiments where the antibiotic mix was used, was confirmed by cultivating fecal pellets resuspended in BHI+15% glycerol at 0.1 g/ml on COS (Columbia Agar with 5% Sheep Blood) plates for 48 h at 37° C. in aerobic and anaerobic conditions weekly. Duration of ATB treatment was slightly different (7-14 days before aPD-1 treatment) based on the experimental settings and is indicated in results for each experiment. In brief, to compromise the efficacy of anti-PD-1 mAb, mice were treated with ATB for one to two weeks before tumor implantation and ATB was continued throughout the experiment or discontinued on the day of anti PD-1 treatment initiation as indicated in the individual experiment. In the context of fecal microbial transplantation experiments, mice received 3 days of ATB before undergoing fecal microbial transplantation the next day by oral gavage using animal feeding needles. In the TC-1 model, ATB treatment was started 3 days before tumor injection and discontinued one day before the first bacterial gavage.
Oral bacterial gavage with commensal species. Akkermansia muciniphila CSUR P2261, and A. indistinctus CSUR P723 were provided by the Institut hospitalo-universitaire Méditerranée Infection, Marseille, France. Enterococcus hirae 13144 isolates were originally isolated from spleens or mesenteric lymph nodes of SPF mice treated with CTX at Gustave Roussy Cancer Campus. A. muciniphila was grown on COS plates in an anaerobic atmosphere created using 3 anaerobic generators (Biomerieux) at 37° C. for at least 72 h. E. hirae 13144 were grown on 5% sheep blood enriched Columbia agar for 24 h at 37° C. in aerobic conditions. Colonization of ATB pre-treated or GF C57BL/6 mice was performed by oral gavage with 100 μl of suspension containing 1×10^8 bacteria. For bacterial gavage: suspensions of […] were obtained using a fluorescence spectrophotometer (Eppendorf) at an optical density of 600 nm in PBS. Five bacterial gavages were performed for each mouse, the first 24 h before the first injection of antiPD-1 mAb and subsequently four times on the same day as anti-PD-1 mAb injection. The efficacy of colonization with E. hirae 13144 was confirmed by culturing the feces 48 h post gavage. Fecal pellets were harvested and resuspended in BHI+15% glycerol at 0.1 g/ml. Serial dilutions of feces were plated onto 5% sheep blood enriched Columbia agar and incubated for 48 h at 37° C. in aerobic and anaerobic conditions. After 48 h, single colonies were isolated and Gram staining was performed. The identification of specific bacteria was accomplished using a Matrix-Assisted Laser Desorption/Ionisation Time of Flight (MALDI-TOF) mass spectrometer (Andromas, Beckman Coulter, France).
RNA extraction and rtPCR. Lysis and extraction protocols were identical for human and mouse samples. Tumor or intestinal samples were snap frozen in liquid nitrogen in RLT Plus buffer containing 0.1% beta mercaptoethanol. On the day of extraction samples were thawed at 4° C. and homogenized on a microtube homogenizer (Benchmark Scientific) in RNA free glass bead tubes (Dutscher). Total RNA extraction and genomic DNA removal were performed with the RNeasy Mini kit (Qiagen), following the manufacturer's recommendations. […]

[2] = system: metastatic clear cell renal cell carcinoma (RCC); assay: NIVOREN trial, second line anti-PD1 in renal cell carcinoma patients; type: in vivo, human
[3] = system: metastatic bladder cancer; assay: STRONG study, Durvalumab in pre-treated metastatic bladder cancer patients; type: in vivo, human; details: 79 patients, 1500 mg iv /4 weeks
Description: Finally, we sought to triplicate the predictive value of sMAdCAM-1 in a subcohort of a Phase 3a trial enrolling pre-treated metastatic bladder cancer patients to receive a fixed dose of 1500 mg of Durvalumab iv (anti-PD-L1 Abs)/4 weeks. In this STRONG study, 79 patients only were analyzed, with an overall median OS of 5.79 months, and a median PFS of 2.79 months. We selected the extreme of the STRONG cohort, 30 Elite patients (OS>6 months, PFS>5 months, PR+CR only) and rapid progressors (n=49, with OS<6 months and PFS<5 months and PD at the first CT scan). In this cohort, the MAdCAM-1 median (min,max) was 158.8 ng/ml (53.41, 244.36).

[4] = system: RORγt+ Treg (Tr17) in MCA205 and 4T1 tumors; assay: Flow cytometry of tumor infiltrating lymphocytes and mLN (Tr17 subsets); type: in vivo, mice; details: oral gavage after ATB stop, s.c. MCA205, αPD-1-based therapy
Description: as §1, with “In the context of fecal microbial transplantation experiments, mice received 3 days of ATB before undergoing fecal microbial transplantation the next day by oral gavage using animal feeding needles. In the TC-1 model, ATB treatment was started 3 days before tumor injection and discontinued one day before the first bacterial gavage.” left out
Subcutaneous model of MCA-205 sarcoma, MC38 and RET melanoma. […] Tumor length and width was routinely monitored every 3 times per week by means of a caliper. […]

[5] = NIVOREN trial, N=729 RCC patients

CN[C@H](CC(C)C)C(=O)N[C@H]1C(=O)N[C@@H](CC(N)=O)C(=O)N[C@H]2C(=O)N[C@H]3C(=O)N[C@H](C(=O)N[C@H](C(=O)O)c4cc(O)cc(O)c4-c4cc3ccc4O)[C@H](O)c3ccc(c(Cl)c3)Oc3cc2cc(c3O[C@@H]2O[C@H](CO)[C@@H](O)[C@H](O)[C@H]2O[C@H]2C[C@](C)(N)[C@H](O)[C@H](C)O2)Oc2ccc(cc2Cl)[C@H]1O [vancomycin]
Madcam1 gene expression in ileal LP ([1]; RT-PCR): upregulated | Madcam1 gene expression in mesenteric lymph nodes (mLN) ([1]; RT-PCR): failed to downregulate

Nivolumab: anti-PD1 mAb
complete responses [2, 5]: 1.2% | objective response rate [2, 5]: 20.8% | partial responses [2, 5]: 19.6% | progressive diseases (PD) [2, 5]: 79.2% | Best response: Partial response ([2]; Overall (n = 212) RCC patients): (7.1) % | Best response: Progressive disease ([2]; Overall (n = 212) RCC patients): (49.7) %

Durvalumab: anti-PD-L1 Abs
median PFS [3]: 2.79 months | overall median OS [3]: 5.79 months

CC1(C)S[C@@H]2[C@H](NC(=O)[C@H](N)c3ccccc3)C(=O)N2[C@H]1C(=O)O [ampicilline, ampicillin]
Madcam1 gene expression in mesenteric lymph nodes (mLN) ([1]; RT-PCR): downregulate

CC[C@H]1OC(=O)[C@H](C)[C@@H](O[C@H]2C[C@@](C)(OC)[C@@H](O)[C@H](C)O2)[C@H](C)[C@@H](O[C@@H]2O[C@H](C)C[C@H](N(C)C)[C@H]2O)[C@](C)(O)C[C@@H](C)C(=O)[C@H](C)[C@@H](O)[C@]1(C)O [erythromycin]
Madcam1 gene expression in mesenteric lymph nodes (mLN) ([1]; RT-PCR): downregulate

[H]/N=C(/N)N[C@H]1[C@H](O)[C@@H](O)[C@H](O[C@@H]2O[C@@H](C)[C@](O)(C=O)[C@H]2O[C@@H]2O[C@@H](CO)[C@H](O)[C@@H](O)[C@@H]2NC)[C@@H](N/C(N)=N\[H])[C@@H]1O [streptomycin]
Madcam1 gene expression in Peyers' patches (PP) ([1]; RT-PCR): downregulated | Madcam1 gene expression in ileal LP ([1]; RT-PCR): downregulated | Madcam1 gene expression in mesenteric lymph nodes (mLN) ([1]; RT-PCR): downregulated

Lactobacillus reuteri
Madcam1 ileal gene expression ([1]; oral supplementation of FMT recipients): could further influence | Tr17 recruitment promoted by PD1 inhibition [4]: failed to do so
